Data reported in US7528138B2, “Pyrazolo[1,5-a]pyrimidines useful as inhibitors of protein kinases” (Vertex Pharmaceuticals Incorporated, priority 2004, dated 2009).

What was measured:
Format in all cases: biochemical
[1] = molecular target: c-Met (Homo sapiens, UniProt P08581); assay: c-Met Inhibition Assay, coupled enzyme system; conditions: enzyme inhibition data (Ki), Table 11
Method: Compounds are screened for their ability to inhibit c-Met kinase activity using a standard coupled enzyme system (Fox et al., Protein Sci. 1998, 7, 2249). Reactions are carried out in a solution containing 100 mM HEPES (pH 7.5), 10 mM MgCl2, 25 mM NaCl, 300 μM NADH, 1 mM DTT, and 1.5% DMSO. Final substrate concentrations in the assay are 200 μM ATP (Sigma Chemicals, St Louis, Mo.) and 10 μM polyGluTyr (Sigma Chemical Company, St. Louis). Reactions are carried out at 30° C. and 80 nM c-Met. Final concentrations of the components of the coupled enzyme system are 2.5 mM phosphoenolpyruvate, 300 μM NADH, 30 μg/ml pyruvate kinase and 10 μg/ml lactate dehydrogenase.
An assay stock buffer solution is prepared containing all of the reagents listed above with the exception of ATP and a test compound of the present invention. The assay stock buffer solution (175 μl) is incubated in a 96 well plate with 5 μl of the test compound of the present invention at final concentrations spanning 0.006 μM to 12.5 μM at 30° C. for 10 minutes. Typically, a 12-point titration is conducted by preparing serial dilutions (from 10 mM compound stocks) with DMSO of the test compounds of the present invention in daughter plates. The reaction is initiated by the addition of 20 μl of ATP (final concentration 200 μM). Rates of reaction are obtained using a Molecular Devices Spectramax plate reader (Sunnyvale, Calif.) over 10 minutes at 30° C. The Ki values are determined from the rate data as a function of inhibitor concentration.

[2] = molecular target: T1, JAK3 (Homo sapiens, UniProt P52333); assay: JAK3 Inhibition Assay, 33P incorporation; conditions: enzyme inhibition data (Ki), Table 11
T1 sequence (P52333 1-1124): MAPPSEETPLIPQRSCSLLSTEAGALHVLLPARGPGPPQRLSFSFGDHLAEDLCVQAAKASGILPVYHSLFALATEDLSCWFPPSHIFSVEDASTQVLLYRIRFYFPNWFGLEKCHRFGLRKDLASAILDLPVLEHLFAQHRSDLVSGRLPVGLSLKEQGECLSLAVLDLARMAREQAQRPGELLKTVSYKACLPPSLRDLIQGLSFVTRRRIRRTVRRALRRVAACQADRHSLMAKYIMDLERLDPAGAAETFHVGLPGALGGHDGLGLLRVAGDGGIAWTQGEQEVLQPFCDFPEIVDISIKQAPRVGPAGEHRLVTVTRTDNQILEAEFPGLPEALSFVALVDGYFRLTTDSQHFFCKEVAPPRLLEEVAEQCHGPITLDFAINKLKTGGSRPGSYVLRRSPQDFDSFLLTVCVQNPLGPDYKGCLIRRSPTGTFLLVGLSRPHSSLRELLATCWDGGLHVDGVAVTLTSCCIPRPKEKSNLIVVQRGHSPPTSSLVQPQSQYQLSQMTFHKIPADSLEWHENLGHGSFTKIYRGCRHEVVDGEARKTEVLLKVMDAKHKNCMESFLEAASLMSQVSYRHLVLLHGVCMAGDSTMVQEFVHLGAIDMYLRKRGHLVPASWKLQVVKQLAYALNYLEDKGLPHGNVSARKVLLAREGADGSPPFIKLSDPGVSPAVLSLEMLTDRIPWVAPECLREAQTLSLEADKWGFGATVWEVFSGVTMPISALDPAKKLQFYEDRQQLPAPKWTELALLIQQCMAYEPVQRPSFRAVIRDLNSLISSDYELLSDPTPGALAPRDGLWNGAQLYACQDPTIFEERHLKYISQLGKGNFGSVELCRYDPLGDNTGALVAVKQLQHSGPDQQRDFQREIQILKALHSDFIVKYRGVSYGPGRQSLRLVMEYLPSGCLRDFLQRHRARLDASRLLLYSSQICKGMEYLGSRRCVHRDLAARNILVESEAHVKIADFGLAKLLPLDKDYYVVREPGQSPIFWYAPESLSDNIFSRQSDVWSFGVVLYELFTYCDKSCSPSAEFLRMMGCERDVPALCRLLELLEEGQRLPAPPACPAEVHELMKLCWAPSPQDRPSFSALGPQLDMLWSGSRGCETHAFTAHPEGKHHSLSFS
Method: Reactions are carried out in a kinase buffer containing 100 mM HEPES (pH 7.4), 1 mM DTT, 10 mM MgCl2, 25 mM NaCl, and 0.01% BSA. Substrate concentrations in the assay are 5 μM ATP (200 uCi/μmole ATP) and 1 μM poly(Glu)4Tyr. Reactions are carried out at 25° C. and 1 nM JAK3. To each well of a 96 well polycarbonate plate is added 1.5 μl of a candidate JAK3 inhibitor along with 50 μl of kinase buffer containing 2 μM poly(Glu)4Tyr and 10 μM ATP. This is then mixed and 50 μl of kinase buffer containing 2 nM JAK3 enzyme is added to start the reaction. After 20 minutes at room temperature (25 C), the reaction is stopped with 50 μl of 20% trichloroacetic acid (TCA) that also contained 0.4 mM ATP. The entire contents of each well are then transferred to a 96 well glass fiber filter plate using a TomTek Cell Harvester. After washing, 60 μl of scintillation fluid is added and ^33P incorporation detected on a Perkin Elmer TopCount.

[3] = molecular target: T2, Itk (Homo sapiens, UniProt Q08881); assay: ITK Inhibition Assay (Radiometric), radioactive-phosphate incorporation; conditions: enzyme inhibition data (Ki), Table 11; radiometric or UV assay not stated
T2 sequence (Q08881 1-620): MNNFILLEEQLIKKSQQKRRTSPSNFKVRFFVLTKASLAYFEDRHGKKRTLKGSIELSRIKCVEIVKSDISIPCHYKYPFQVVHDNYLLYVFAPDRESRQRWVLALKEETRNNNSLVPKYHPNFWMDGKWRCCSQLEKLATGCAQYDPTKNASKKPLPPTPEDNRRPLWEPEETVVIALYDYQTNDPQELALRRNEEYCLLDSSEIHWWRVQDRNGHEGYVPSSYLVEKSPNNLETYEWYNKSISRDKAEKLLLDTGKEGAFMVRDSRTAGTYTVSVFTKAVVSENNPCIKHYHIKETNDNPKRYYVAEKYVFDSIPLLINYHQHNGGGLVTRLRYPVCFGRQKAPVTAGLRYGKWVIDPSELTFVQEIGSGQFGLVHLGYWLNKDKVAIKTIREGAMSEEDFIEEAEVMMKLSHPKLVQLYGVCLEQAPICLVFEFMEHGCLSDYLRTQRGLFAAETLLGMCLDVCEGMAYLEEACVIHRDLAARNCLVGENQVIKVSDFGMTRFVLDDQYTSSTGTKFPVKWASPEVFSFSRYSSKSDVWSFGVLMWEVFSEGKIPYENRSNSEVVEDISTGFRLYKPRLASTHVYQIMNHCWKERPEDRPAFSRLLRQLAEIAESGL
Method: Assays are carried out in a mixture of 20 mM MOPS (pH 7.0), 10 mM MgCl2, 0.1% BSA and 1 mM DTT. Final substrate concentrations in the assay are 7.5 μM [γ-33P]ATP (400 mCi 33P ATP/mmol ATP, Amersham Pharmacia Biotech/Sigma Chemicals) and 3 μM peptide (SAM68 protein D332-443). Assays are carried out at 25° C. in the presence of 50 nM Itk. An assay stock buffer solution is prepared containing all of the reagents listed above, with the exception of ATP and the test compound of interest. 50 μL of the stock solution is placed in a 96 well plate followed by addition of 2 μL of DMSO stock containing serial dilutions of the test compound (typically starting from a final concentration of 50 μM with 2-fold serial dilutions) in duplicate (final DMSO concentration 2%). The plate is pre-incubated for 10 minutes at 25° C. and the reaction initiated by addition of 50 μL [γ-33P]ATP (final concentration 7.5 μM).
The reaction is stopped after 10 minutes by the addition of […] 0.2M phosphoric acid+0.01% TWEEN 20. A multiscreen phosphocellulose filter 96-well plate (Millipore, Cat no. MAPHN0B50) is pretreated with 100 μL 0.2M phosphoric acid +0.01% TWEEN 20 prior to the addition of […] of the stopped assay mixture. The plate is washed with 4×200 μL 0.2M phosphoric acid+0.01% TWEEN 20. After drying, 30 μL Optiphase ‘SuperMix’ liquid scintillation cocktail (Perkin Elmer) is added to the well prior to scintillation counting (1450 Microbeta Liquid Scintillation Counter, Wallac).
Ki(app) data are calculated from non-linear regression analysis of the initial rate data using the Prism software package (GraphPad Prism version 3.0cx for Macintosh, GraphPad Software, San Diego Calif., USA).

Chain of c-Met (P08581 25-1390): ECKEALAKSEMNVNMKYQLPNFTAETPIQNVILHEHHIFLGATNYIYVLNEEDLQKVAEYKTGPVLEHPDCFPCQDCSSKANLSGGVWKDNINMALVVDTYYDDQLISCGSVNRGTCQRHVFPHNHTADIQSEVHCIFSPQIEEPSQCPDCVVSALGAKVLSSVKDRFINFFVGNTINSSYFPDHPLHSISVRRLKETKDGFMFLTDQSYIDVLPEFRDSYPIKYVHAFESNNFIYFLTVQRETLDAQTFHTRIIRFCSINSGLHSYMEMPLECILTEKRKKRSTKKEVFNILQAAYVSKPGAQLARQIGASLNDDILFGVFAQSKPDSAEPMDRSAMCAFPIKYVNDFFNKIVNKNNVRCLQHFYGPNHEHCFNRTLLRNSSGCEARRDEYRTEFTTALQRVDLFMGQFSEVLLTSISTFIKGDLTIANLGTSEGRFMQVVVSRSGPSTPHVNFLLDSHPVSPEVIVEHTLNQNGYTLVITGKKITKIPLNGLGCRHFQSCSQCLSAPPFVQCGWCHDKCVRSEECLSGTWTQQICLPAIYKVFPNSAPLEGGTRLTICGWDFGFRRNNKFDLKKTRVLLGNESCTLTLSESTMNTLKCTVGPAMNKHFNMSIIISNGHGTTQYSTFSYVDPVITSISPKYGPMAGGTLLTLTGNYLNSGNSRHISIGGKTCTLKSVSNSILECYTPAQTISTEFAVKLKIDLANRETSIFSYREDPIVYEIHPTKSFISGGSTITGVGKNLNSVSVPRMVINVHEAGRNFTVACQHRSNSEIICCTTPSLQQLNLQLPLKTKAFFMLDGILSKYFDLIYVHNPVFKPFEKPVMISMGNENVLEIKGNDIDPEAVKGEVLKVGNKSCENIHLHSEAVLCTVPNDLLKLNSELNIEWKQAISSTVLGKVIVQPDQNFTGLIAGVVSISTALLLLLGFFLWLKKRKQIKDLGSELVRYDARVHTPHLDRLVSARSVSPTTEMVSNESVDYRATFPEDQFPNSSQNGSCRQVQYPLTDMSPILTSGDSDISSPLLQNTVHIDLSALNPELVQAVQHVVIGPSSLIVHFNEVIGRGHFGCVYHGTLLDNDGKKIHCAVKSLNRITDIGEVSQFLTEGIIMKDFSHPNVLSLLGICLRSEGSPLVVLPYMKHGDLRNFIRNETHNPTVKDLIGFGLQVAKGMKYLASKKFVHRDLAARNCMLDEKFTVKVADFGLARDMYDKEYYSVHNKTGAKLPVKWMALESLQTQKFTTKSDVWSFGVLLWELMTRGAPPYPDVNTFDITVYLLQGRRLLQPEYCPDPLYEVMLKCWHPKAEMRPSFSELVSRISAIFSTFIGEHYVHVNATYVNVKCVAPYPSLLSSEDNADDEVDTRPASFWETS

Structure (SMILES) | Ki [1] | Ki [2] | Ki [3]
CN1CCN(c2ccc(-c3cnc4c(-c5ccccn5)c(N)nn4c3)cn2)CC1 [Compound V-145] | < 500 nM | > 5000 nM | < 500 nM
COCCNc1cc(-c2cnc3c(-c4ccccn4)c(N)nn3c2)ccn1 [Compound V-245] | < 500 nM | > 5000 nM | 500 to 5000 nM
Cc1cnc2c(-c3cc(N[C@H](CO)CC(C)C)ncn3)c(N)nn2c1 [Compound V-298] | < 500 nM | 500 to 5000 nM | < 500 nM
CCN(CCN)C(=O)c1cccc(-c2cnc3c(-c4ccccn4)c(N)nn3c2)n1 [Compound V-126] | < 500 nM | > 5000 nM | 500 to 5000 nM
Nc1nn2cc(-c3ccc(NCCCC4=NCC=N4)nc3)cnc2c1-c1ccccn1 [Compound V-161] | < 500 nM | > 5000 nM | 500 to 5000 nM
Nc1nn2cc(-c3ccc(N4CCN(c5cnccn5)CC4)nc3)cnc2c1-c1ccccn1 [Compound V-162] | 500 to 5000 nM | > 5000 nM | 500 to 5000 nM
CCOC(=O)C1CCCN(CCCc2cnc3c(-c4ccccn4)c(N)nn3c2)C1 (stereo not drawn) [Compound V-330] | 500 to 5000 nM | > 5000 nM | 500 to 5000 nM
CN1CCC(N(C)C(=O)c2ccc(-c3cnc4c(-c5ccccn5)c(N)nn4c3)nc2)CC1 [Compound V-61] | < 500 nM | 500 to 5000 nM | < 500 nM
CN(Cc1cccnc1)c1cc(-c2cnc3c(-c4ccccn4)c(N)nn3c2)ccn1 [Compound V-252] | 500 to 5000 nM | > 5000 nM | 500 to 5000 nM
Nc1nn2cc(-c3ccnc(N4CCN(CCOCCO)CC4)c3)cnc2c1-c1ccccn1 [Compound V-249] | < 500 nM | 500 to 5000 nM | 500 to 5000 nM
COC(=O)C1CCN(c2ncccc2-c2cnc3c(-c4ccccn4)c(N)nn3c2)CC1 [Compound V-260] | 500 to 5000 nM | > 5000 nM | 500 to 5000 nM
Nc1nn2cc(-c3cccc(C(=O)N4CCC(N)C4)n3)cnc2c1-c1ccccn1 (stereo not drawn) [Compound V-119] | < 500 nM | 500 to 5000 nM | 500 to 5000 nM
Cc1n[nH]c(C)c1-c1cnc2c(-c3ccccn3)c(N)nn2c1 [Compound V-53] | < 500 nM | > 5000 nM | 500 to 5000 nM
Cc1ccccc1-c1cnc2c(-c3ccccn3)c(N)nn2c1 [Compound V-7] | 500 to 5000 nM | > 5000 nM | 500 to 5000 nM
CC(=O)c1ccccc1-c1cnc2c(-c3ccccn3)c(N)nn2c1 [Compound V-6] | 500 to 5000 nM | 500 to 5000 nM | 500 to 5000 nM
Cc1cnc2c(-c3cc(N4CCCC4C)ncn3)c(N)nn2c1 (stereo not drawn) [Compound V-299] | < 500 nM | < 500 nM | < 500 nM
CCCCN(CCN)C(=O)c1cccc(-c2cnc3c(-c4ccccn4)c(N)nn3c2)n1 [Compound V-113] | < 500 nM | 500 to 5000 nM | < 500 nM
COc1cccc(OC)c1-c1cnc2c(-c3ccccn3)c(N)nn2c1 [Compound V-3] | 500 to 5000 nM | > 5000 nM | 500 to 5000 nM
CCN(Cc1ccncc1)C(=O)c1c(N)nn2cc(-c3ccncn3)cnc12 [Compound V-36] | 500 to 5000 nM | > 5000 nM | 500 to 5000 nM
COC(=O)/C=C/c1ccccc1-c1cnc2c(-c3ccccn3)c(N)nn2c1 [Compound V-17] | 500 to 5000 nM | > 5000 nM | 500 to 5000 nM
Nc1nn2cc(-c3ccncn3)cnc2c1C(=O)N(CCO)Cc1ccccc1 [Compound V-37] | 500 to 5000 nM | > 5000 nM | 500 to 5000 nM
COCCCN1CCN(C(=O)c2cccc(-c3cnc4c(-c5ccccn5)c(N)nn4c3)n2)CC1 [Compound V-117] | < 500 nM | > 5000 nM | 500 to 5000 nM
Nc1nn2cc(-c3ccc(C(=O)N4CCCCC4)cn3)cnc2c1-c1ccccn1 [Compound V-91] | < 500 nM | < 500 nM | < 500 nM
CC(=O)N1CCN(c2ncccc2-c2cnc3c(-c4ccccn4)c(N)nn3c2)CC1 [Compound V-269] | 500 to 5000 nM | > 5000 nM | 500 to 5000 nM
Nc1nn2cc(CCCNC3CC3)cnc2c1-c1ccccn1 [Compound V-322] | 500 to 5000 nM | > 5000 nM | 500 to 5000 nM
Nc1nn2cc(CCCNC3CCCCC3)cnc2c1-c1ccccn1 [Compound V-323] | 500 to 5000 nM | > 5000 nM | 500 to 5000 nM
